Experimental data as given in PubChem BioAssay (NCI).
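Protocol summary: plate cells (96-well), add compound at 5 concentrations, incubate 48 h, interpolate endpoints linearly. TGI: concentration producing complete growth inhibition.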

Legend:
Test in all cases: NCI tumour cell line growth inhibition, 48 h
DMS 273 small cell lung = test system: DMS 273 small cell lung
UACC-257 melanoma = test system: UACC-257 melanoma
HOP-62 NSCLC = test system: HOP-62 NSCLC
786-0 renal = test system: 786-0 renal
RPMI-8226 leukemia = test system: RPMI-8226 leukemia
NCI-H23 lung = test system: NCI-H23 lung
UACC-62 melanoma = test system: UACC-62 melanoma
T-47D breast = test system: T-47D breast
EKVX NSCLC = test system: EKVX NSCLC
KM12 colon = test system: KM12 colon
HOP-92 NSCLC = test system: HOP-92 NSCLC
SK-MEL-28 melanoma = test system: SK-MEL-28 melanoma
U251 CNS = test system: U251 CNS
SW-620 colon = test system: SW-620 colon
NCI/ADR-RES ovarian = test system: NCI/ADR-RES ovarian
HS 578T breast = test system: HS 578T breast
UO-31 renal = test system: UO-31 renal
CCRF-CEM leukemia = test system: CCRF-CEM leukemia
ACHN renal = test system: ACHN renal
P388 leukemia = test system: P388 leukemia
HCC-2998 colon = test system: HCC-2998 colon
MDA-MB-231 breast = test system: MDA-MB-231 breast
KM20L2 colon = test system: KM20L2 colon
K-562 leukemia = test system: K-562 leukemia
HL-60(TB) leukemia = test system: HL-60(TB) leukemia
SN12C renal = test system: SN12C renal
A498 renal = test system: A498 renal
CAKI-1 renal = test system: CAKI-1 renal
MALME-3M melanoma = test system: MALME-3M melanoma
BT-549 breast = test system: BT-549 breast
SNB-19 CNS = test system: SNB-19 CNS
DLD-1 colon = test system: DLD-1 colon
RXF-631 renal = test system: RXF-631 renal
TK-10 renal = test system: TK-10 renal
NCI-H226 lung = test system: NCI-H226 lung
OVCAR-5 ovarian = test system: OVCAR-5 ovarian
OVCAR-4 ovarian = test system: OVCAR-4 ovarian
COLO 205 colon = test system: COLO 205 colon
HCT-15 colon = test system: HCT-15 colon
SN12K1 renal = test system: SN12K1 renal
NCI-H460 lung = test system: NCI-H460 lung
SK-MEL-2 melanoma = test system: SK-MEL-2 melanoma
MDA-N = test system: MDA-N
M19-MEL melanoma = test system: M19-MEL melanoma
MDA-MB-435 = test system: MDA-MB-435
SK-MEL-5 melanoma = test system: SK-MEL-5 melanoma
OVCAR-3 ovarian = test system: OVCAR-3 ovarian
MCF7 breast = test system: MCF7 breast
OVCAR-8 ovarian = test system: OVCAR-8 ovarian
HT29 colon = test system: HT29 colon
DU-145 prostate = test system: DU-145 prostate
LOX IMVI melanoma = test system: LOX IMVI melanoma
SR leukemia = test system: SR leukemia
M14 melanoma = test system: M14 melanoma
RXF 393 renal = test system: RXF 393 renal
IGROV1 ovarian = test system: IGROV1 ovarian
HOP-18 NSCLC = test system: HOP-18 NSCLC
MOLT-4 leukemia = test system: MOLT-4 leukemia
PC-3 prostate = test system: PC-3 prostate
SK-OV-3 ovarian = test system: SK-OV-3 ovarian
SF-268 CNS = test system: SF-268 CNS
HCT-116 colon = test system: HCT-116 colon
SNB-75 CNS = test system: SNB-75 CNS
A549 NSCLC = test system: A549 NSCLC
NCI-H522 lung = test system: NCI-H522 lung
DMS 114 small cell lung = test system: DMS 114 small cell lung
SF-539 CNS = test system: SF-539 CNS
SNB-78 CNS = test system: SNB-78 CNS
LXFL 529 NSCLC = test system: LXFL 529 NSCLC
P388/ADR leukemia = test system: P388/ADR leukemia
SF-295 CNS = test system: SF-295 CNS
XF 498 CNS = test system: XF 498 CNS

CCOC(=O)/C(=C\c1ccccc1)C(=O)CCN1CCOCC1
TGI (DMS 273 small cell lung): 27.3 µM | TGI (UACC-257 melanoma): 11 µM | TGI (HOP-62 NSCLC): 40.8 µM | TGI (786-0 renal): 21.9 µM | TGI (RPMI-8226 leukemia): 6.07 µM | TGI (NCI-H23 lung): 24.9 µM | TGI (UACC-62 melanoma): 12.5 µM | TGI (T-47D breast): 40.5 µM | TGI (EKVX NSCLC): 34.7 µM | TGI (KM12 colon): 23.1 µM | TGI (HOP-92 NSCLC): 17.2 µM | TGI (SK-MEL-28 melanoma): 10.1 µM | TGI (U251 CNS): 21.6 µM | TGI (SW-620 colon): 5.19 µM | TGI (NCI/ADR-RES ovarian): 32.5 µM | TGI (HS 578T breast): > 100 µM | TGI (UO-31 renal): 31.2 µM | TGI (CCRF-CEM leukemia): 3.95 µM | TGI (ACHN renal): 13.4 µM | TGI (P388 leukemia): 3.66 µM | TGI (HCC-2998 colon): 32.6 µM | TGI (MDA-MB-231 breast): 27.1 µM | TGI (KM20L2 colon): 30.9 µM | TGI (K-562 leukemia): 4.87 µM | TGI (HL-60(TB) leukemia): 3.38 µM | TGI (SN12C renal): 19.7 µM | TGI (A498 renal): 31.1 µM | TGI (CAKI-1 renal): 9.51 µM | TGI (MALME-3M melanoma): 7.85 µM | TGI (BT-549 breast): 33.6 µM | TGI (SNB-19 CNS): 51.5 µM | TGI (DLD-1 colon): 6.96 µM | TGI (RXF-631 renal): 28.8 µM | TGI (TK-10 renal): 19.9 µM | TGI (NCI-H226 lung): 45.9 µM | TGI (OVCAR-5 ovarian): 31.8 µM | TGI (OVCAR-4 ovarian): 33.6 µM | TGI (COLO 205 colon): 8.93 µM | TGI (HCT-15 colon): 9.63 µM | TGI (SN12K1 renal): 19.4 µM | TGI (NCI-H460 lung): 30 µM | TGI (SK-MEL-2 melanoma): 42.4 µM | TGI (MDA-N): 18.7 µM | TGI (M19-MEL melanoma): 11.8 µM | TGI (MDA-MB-435): 40.1 µM | TGI (SK-MEL-5 melanoma): 25.3 µM | TGI (OVCAR-3 ovarian): 18.6 µM | TGI (MCF7 breast): 23.8 µM | TGI (OVCAR-8 ovarian): 18.4 µM | TGI (HT29 colon): 25.1 µM | TGI (DU-145 prostate): 39.2 µM | TGI (LOX IMVI melanoma): 8.54 µM | TGI (SR leukemia): 9.11 µM | TGI (M14 melanoma): 18 µM | TGI (RXF 393 renal): 6.09 µM | TGI (IGROV1 ovarian): 29.9 µM | TGI (HOP-18 NSCLC): 28.6 µM | TGI (MOLT-4 leukemia): 5.3 µM | TGI (PC-3 prostate): 24.7 µM | TGI (SK-OV-3 ovarian): 50.5 µM | TGI (SF-268 CNS): 27.8 µM | TGI (HCT-116 colon): 34.9 µM | TGI (SNB-75 CNS): 38.3 µM | TGI (A549 NSCLC): 53.1 µM | TGI (NCI-H522 lung): 3.43 µM | TGI (DMS 114 small cell lung): 14.6 µM | TGI (SF-539 CNS): 16 µM | TGI (SNB-78 CNS): 36.5 µM | TGI (LXFL 529 NSCLC): 3.52 µM | TGI (P388/ADR leukemia): > 21.7 µM | TGI (SF-295 CNS): 38.3 µM

COc1cc(/C=C/C(=O)Oc2ccc(NC(C)=O)cc2)ccc1C(=O)OCc1ccccc1
TGI (DMS 273 small cell lung): > 100 µM | TGI (UACC-257 melanoma): > 100 µM | TGI (HOP-62 NSCLC): > 91.3 µM | TGI (786-0 renal): > 100 µM | TGI (RPMI-8226 leukemia): > 100 µM | TGI (XF 498 CNS): > 70.2 µM | TGI (NCI-H23 lung): > 100 µM | TGI (UACC-62 melanoma): > 97.1 µM | TGI (T-47D breast): > 100 µM | TGI (EKVX NSCLC): > 100 µM | TGI (KM12 colon): > 100 µM | TGI (HOP-92 NSCLC): > 100 µM | TGI (SK-MEL-28 melanoma): > 100 µM | TGI (U251 CNS): > 78.7 µM | TGI (SW-620 colon): > 100 µM | TGI (NCI/ADR-RES ovarian): > 100 µM | TGI (HS 578T breast): > 100 µM | TGI (UO-31 renal): > 100 µM | TGI (CCRF-CEM leukemia): > 100 µM | TGI (ACHN renal): > 100 µM | TGI (P388 leukemia): > 100 µM | TGI (HCC-2998 colon): > 100 µM | TGI (MDA-MB-231 breast): > 100 µM | TGI (KM20L2 colon): > 100 µM | TGI (K-562 leukemia): > 100 µM | TGI (HL-60(TB) leukemia): > 100 µM | TGI (SN12C renal): > 100 µM | TGI (A498 renal): > 100 µM | TGI (CAKI-1 renal): > 100 µM | TGI (MALME-3M melanoma): > 100 µM | TGI (BT-549 breast): > 100 µM | TGI (SNB-19 CNS): > 91.2 µM | TGI (DLD-1 colon): > 100 µM | TGI (TK-10 renal): > 100 µM | TGI (NCI-H226 lung): > 100 µM | TGI (OVCAR-5 ovarian): > 100 µM | TGI (OVCAR-4 ovarian): > 100 µM | TGI (COLO 205 colon): > 100 µM | TGI (HCT-15 colon): > 100 µM | TGI (SN12K1 renal): > 100 µM | TGI (NCI-H460 lung): > 100 µM | TGI (SK-MEL-2 melanoma): 99.8 µM | TGI (MDA-N): > 100 µM | TGI (M19-MEL melanoma): > 100 µM | TGI (MDA-MB-435): > 100 µM | TGI (SK-MEL-5 melanoma): > 100 µM | TGI (OVCAR-3 ovarian): > 100 µM | TGI (MCF7 breast): > 100 µM | TGI (OVCAR-8 ovarian): > 100 µM | TGI (HT29 colon): > 100 µM | TGI (DU-145 prostate): > 100 µM | TGI (LOX IMVI melanoma): > 100 µM | TGI (SR leukemia): > 100 µM | TGI (M14 melanoma): > 100 µM | TGI (RXF 393 renal): 58.3 µM | TGI (IGROV1 ovarian): > 93.2 µM | TGI (HOP-18 NSCLC): > 100 µM | TGI (MOLT-4 leukemia): > 100 µM | TGI (PC-3 prostate): > 100 µM | TGI (SK-OV-3 ovarian): > 92 µM | TGI (SF-268 CNS): > 100 µM | TGI (HCT-116 colon): > 100 µM | TGI (SNB-75 CNS): 47.6 µM | TGI (A549 NSCLC): > 100 µM | TGI (NCI-H522 lung): > 100 µM | TGI (DMS 114 small cell lung): > 100 µM | TGI (SF-539 CNS): 60.8 µM | TGI (SNB-78 CNS): > 89.4 µM | TGI (LXFL 529 NSCLC): > 100 µM | TGI (P388/ADR leukemia): > 100 µM | TGI (SF-295 CNS): > 89.3 µM
